Where two headings read alike, the source gives them in different places.
How the values were obtained:
Assay type in all cases: cell-based
SW480 (colon cancer) = test: Antiproliferative activity (CCK-8 cell viability), SW480; conditions: Homo sapiens, 72 h; for inhibition at 3.3 µM: Compound concentration: 3.3 μM; for inhibition at 10 µM: Compound concentration: 10 μM; for inhibition at 30 µM: Compound concentration: 30 μM
Summary of the method: (§1)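 Growth inhibition graded in bands from percent viability against DMSO vehicle, read as CCK-8 absorbance at 450 nm. Compound tested at 3.3, 10 or 30 μM for 72 h, 37 °C; media contained 10% FBS: DMEM for HepG2/SW480, MEM for HeLa, F-12K for A549.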

[1] = test system: A431 (epidermoid carcinoma); test: Antiproliferative activity (CCK-8 cell viability), A431; conditions: Homo sapiens, 72 h; for inhibition at 3.3 µM: A-431, Compound concentration: 3.3 μM; for inhibition at 10 µM: A-431, Compound concentration: 10 μM; for inhibition at 30 µM: A-431, Compound concentration: 30 μM
Summary of the method: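 This growth inhibition assay used A431 cells maintained in Dulbecco's modified Eagle's medium plus 10% fetal bovine serum. Cells were seeded in 96-well plates, treated with compound for 72 h at 37° C., and then given 10 μL CCK-8 solution. After a further 4 h, absorbance was read at 450 nm.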

HeLa (cervical cancer) = test: Antiproliferative activity (CCK-8 cell viability), HeLa; conditions: Homo sapiens, 72 h, read-out: Antiproliferative activity in cancerous cells, HELA (inhibition of cell growth); for inhibition at 3.3 µM: Compound concentration: 3.3 μM; for inhibition at 10 µM: Compound concentration: 10 μM; for inhibition at 30 µM: Compound concentration: 30 μM
Summary of the method: as §1

HepG2 (liver cancer) = test: Antiproliferative activity (CCK-8 cell viability), HepG2; conditions: Homo sapiens, 72 h, read-out: Antiproliferative activity in cancerous cells, HepG2 (inhibition of cell growth); for inhibition at 3.3 µM: Compound concentration: 3.3 μM; for inhibition at 10 µM: Compound concentration: 10 μM; for inhibition at 30 µM: Compound concentration: 30 μM
Summary of the method: as §1

[2] = test system: B16F10 (malignant melanoma); test: Antiproliferative activity (CCK-8 cell viability), B16F10; conditions: Mus musculus, 72 h, read-out: Antiproliferative activity in cancerous cells, B16F10 (inhibition of cell growth); for inhibition at 3.3 µM: B16-F10, Compound concentration: 3.3 μM; for inhibition at 10 µM: B16-F10, Compound concentration: 10 μM; for inhibition at 30 µM: B16-F10, Compound concentration: 30 μM
Summary of the method: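 Cell growth inhibition was measured in B16F10 malignant melanoma cells with a Cell Counting Kit-8 viability assay. Cells were maintained in DMEM plus 10% fetal bovine serum, seeded at 2,000-5,000 cells/well in 96-well plates, and treated for 72 h at 37° C. Viability was expressed relative to DMSO-treated vehicle control wells.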

[3] = test system: A549 (lung adenocarcinoma); test: Antiproliferative activity (CCK-8 cell viability), A549; conditions: Homo sapiens, 72 h; for inhibition at 3.3 µM: Compound concentration: 3.3 μM; for inhibition at 10 µM: Compound concentration: 10 μM; for inhibition at 30 µM: Compound concentration: 30 μM
Summary of the method: as §1

[4] = test system: MDA-MB-231 (breast cancer); test: Antiproliferative activity (CCK-8 cell viability), MDA-MB-231; conditions: Homo sapiens, 72 h, read-out: Antiproliferative activity in cancerous cells, MDA-MB-231 (inhibition of cell growth); for inhibition at 3.3 µM: Compound concentration: 3.3 μM; for inhibition at 10 µM: Compound concentration: 10 μM; for inhibition at 30 µM: Compound concentration: 30 μM
Summary of the method: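 Growth inhibition of human MDA-MB-231 breast cancer cells was assessed with a Cell Counting Kit-8. Cells cultured in DMEM plus 10% FBS were seeded at 2,000-5,000 cells/well, treated after attachment, and kept 72 h at 37° C. CCK-8 solution (10 μL) was added for 4 h, and absorbance at 450 nm was compared with DMSO-treated controls.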

[5] = read-out: Antiproliferative activity in cancerous cells, SW480 (inhibition of cell growth)
[6] = read-out: Antiproliferative activity in cancerous cells, A431 (inhibition of cell growth)
[7] = read-out: Antiproliferative activity in cancerous cells, A549 (inhibition of cell growth)

Row | SMILES | inhibition at 3.3 µM (SW480 (colon cancer); [5]) | inhibition at 10 µM (SW480 (colon cancer); [5]) | inhibition at 30 µM (SW480 (colon cancer); [5]) | inhibition at 3.3 µM [1, 6] | inhibition at 10 µM [1, 6] | inhibition at 30 µM [1, 6] | inhibition at 3.3 µM (HeLa (cervical cancer)) | inhibition at 10 µM (HeLa (cervical cancer)) | inhibition at 30 µM (HeLa (cervical cancer)) | inhibition at 3.3 µM (HepG2 (liver cancer)) | inhibition at 10 µM (HepG2 (liver cancer)) | inhibition at 30 µM (HepG2 (liver cancer)) | inhibition at 3.3 µM [2] | inhibition at 10 µM [2] | inhibition at 30 µM [2] | inhibition at 3.3 µM [3, 7] | inhibition at 10 µM [3, 7] | inhibition at 30 µM [3, 7] | inhibition at 3.3 µM [4] | inhibition at 10 µM [4] | further results
1 | CC1=C(CC(=O)O)c2cc(F)ccc2/C1=C\c1ccc(C(=O)c2cc3ccccc3s2)cc1 [C303, (Z)-2-(1-(4-(Benzo[b]thiophene-2-carbonyl)benzylidene)-5-fluoro-2-methyl-1H-inden-3-yl)acetic acid] | 30 to 50% | ≥ 50% | ≥ 50% | < 30% | ≥ 50% | ≥ 50% | 30 to 50% | ≥ 50% | ≥ 50% | 30 to 50% | ≥ 50% | ≥ 50% | ≥ 50% | ≥ 50% | ≥ 50% | 30 to 50% | ≥ 50% | ≥ 50% | ≥ 50% | ≥ 50% | inhibition at 30 µM [4]: ≥ 50%
2 | CC1=C(CC(=O)O)c2cc(F)ccc2/C1=C\c1ccc(C(=O)c2cc3ccccc3o2)cc1 [C309, (Z)-2-(1-(4-(Benzofuran-2-carbonyl)benzylidene)-5-fluoro-2-methyl-1H-inden-3-yl)acetic acid] | < 30% | ≥ 50% | ≥ 50% | 30 to 50% | ≥ 50% | ≥ 50% | 30 to 50% | ≥ 50% | ≥ 50% | < 30% | ≥ 50% | ≥ 50% | < 30% | ≥ 50% | ≥ 50% | < 30% | 30 to 50% | ≥ 50% | 30 to 50% | 30 to 50% | inhibition at 30 µM [4]: ≥ 50%
3 | COc1ccc(S(=O)(=O)c2ccc(/C=C3/C(C)=C(CC(=O)O)c4cc(F)ccc43)cc2)cc1 [C41, (Z)-2-(5-Fluoro-1-(4-((4-methoxyphenyl)sulfonyl)benzylidene)-2-methyl-1H-inden-3-yl)acetic acid] | < 30% | ≥ 50% | – | 30 to 50% | ≥ 50% | – | < 30% | ≥ 50% | – | < 30% | ≥ 50% | – | 30 to 50% | ≥ 50% | – | < 30% | ≥ 50% | – | ≥ 50% | ≥ 50% | –
4 | CC1=C(CC(=O)O)c2cc(F)ccc2/C1=C\c1ccc(Cc2cc3ccccc3o2)cc1 [C311, (Z)-2-(1-(4-(Benzofuran-2-ylmethyl)benzylidene)-5-fluoro-2-methyl-1H-inden-3-yl)acetic acid] | < 30% | < 30% | < 30% | 30 to 50% | 30 to 50% | 30 to 50% | < 30% | < 30% | 30 to 50% | ≥ 50% | ≥ 50% | ≥ 50% | ≥ 50% | ≥ 50% | ≥ 50% | < 30% | < 30% | < 30% | < 30% | ≥ 50% | inhibition at 30 µM [4]: ≥ 50%
5 | CC1=C(CCOC(=O)N(C)N)c2cc(F)ccc2/C1=C\c1ccc(Oc2ccc(F)cc2)cc1 [A205, (Z)-2-(5-Fluoro-1-(4-(4-fluorophenoxy)benzylidene)-2-methyl-1H-inden-3-yl)ethyl 1-methylhydrazine-1-carboxylate] | < 30% | < 30% | – | < 30% | < 30% | – | 30 to 50% | ≥ 50% | – | 30 to 50% | ≥ 50% | – | < 30% | < 30% | – | < 30% | < 30% | – | < 30% | ≥ 50% | inhibition at 30 µM (SW480 (colon cancer); read-out: Antiproliferative activity in cancerous cells, SW480): 30 to 50%; inhibition at 30 µM ([1]; read-out: Antiproliferative activity in cancerous cells, A431): 30 to 50%; inhibition at 30 µM ([3]; read-out: Antiproliferative activity in cancerous cells, A549): 30 to 50%
6 | CCOCc1ccc(/C=C2/C(C)=C(CC(=O)O)c3cc(F)ccc32)cc1 [D10, (Z)-2-(1-(4-(Ethoxymethyl)benzylidene)-5-fluoro-2-methyl-1H-inden-3-yl)acetic acid] | 30 to 50% | 30 to 50% | 30 to 50% | ≥ 50% | ≥ 50% | ≥ 50% | 30 to 50% | ≥ 50% | ≥ 50% | < 30% | < 30% | 30 to 50% | 30 to 50% | 30 to 50% | 30 to 50% | 30 to 50% | 30 to 50% | 30 to 50% | < 30% | < 30% | inhibition at 30 µM [4]: 30 to 50%
7 | COc1ccc2c(c1)C(CC(=O)O)=C(C)/C2=C/c1ccc(COCc2ccc(Cl)cc2)cc1 [B118, (Z)-2-(1-(4-(((4-Chlorobenzyl)oxy)methyl)benzylidene)-5-methoxy-2-methyl-1H-inden-3-yl)acetic acid] | ≥ 50% | ≥ 50% | – | ≥ 50% | ≥ 50% | – | < 30% | ≥ 50% | – | < 30% | ≥ 50% | – | ≥ 50% | ≥ 50% | – | 30 to 50% | ≥ 50% | – | < 30% | < 30% | –
